# Laboratory results taken from patent publication US20230151003A1, “COMPOUNDS AND METHODS OF USE” (Exelixis, Inc., priority 2020, published 2023).
# pIC50: −log10 of the molar value. Where a name gives a salt, the structure may show the parent alone.
# Key:
# Met = Met (Homo sapiens, UniProt P08581); assay: Met autophosphorylation ELISA in PC-3 cells; format: cell-based; parameters: endogenous in cells; host or cells: PC-3 prostate cancer cells (ATCC #CRL-1435); conditions: Table 3 Cellular Activities, HGF-stimulated, phospho-Met ELISA, read-out: c-Met IC50
# Sequence of Met (P08581 25-1390): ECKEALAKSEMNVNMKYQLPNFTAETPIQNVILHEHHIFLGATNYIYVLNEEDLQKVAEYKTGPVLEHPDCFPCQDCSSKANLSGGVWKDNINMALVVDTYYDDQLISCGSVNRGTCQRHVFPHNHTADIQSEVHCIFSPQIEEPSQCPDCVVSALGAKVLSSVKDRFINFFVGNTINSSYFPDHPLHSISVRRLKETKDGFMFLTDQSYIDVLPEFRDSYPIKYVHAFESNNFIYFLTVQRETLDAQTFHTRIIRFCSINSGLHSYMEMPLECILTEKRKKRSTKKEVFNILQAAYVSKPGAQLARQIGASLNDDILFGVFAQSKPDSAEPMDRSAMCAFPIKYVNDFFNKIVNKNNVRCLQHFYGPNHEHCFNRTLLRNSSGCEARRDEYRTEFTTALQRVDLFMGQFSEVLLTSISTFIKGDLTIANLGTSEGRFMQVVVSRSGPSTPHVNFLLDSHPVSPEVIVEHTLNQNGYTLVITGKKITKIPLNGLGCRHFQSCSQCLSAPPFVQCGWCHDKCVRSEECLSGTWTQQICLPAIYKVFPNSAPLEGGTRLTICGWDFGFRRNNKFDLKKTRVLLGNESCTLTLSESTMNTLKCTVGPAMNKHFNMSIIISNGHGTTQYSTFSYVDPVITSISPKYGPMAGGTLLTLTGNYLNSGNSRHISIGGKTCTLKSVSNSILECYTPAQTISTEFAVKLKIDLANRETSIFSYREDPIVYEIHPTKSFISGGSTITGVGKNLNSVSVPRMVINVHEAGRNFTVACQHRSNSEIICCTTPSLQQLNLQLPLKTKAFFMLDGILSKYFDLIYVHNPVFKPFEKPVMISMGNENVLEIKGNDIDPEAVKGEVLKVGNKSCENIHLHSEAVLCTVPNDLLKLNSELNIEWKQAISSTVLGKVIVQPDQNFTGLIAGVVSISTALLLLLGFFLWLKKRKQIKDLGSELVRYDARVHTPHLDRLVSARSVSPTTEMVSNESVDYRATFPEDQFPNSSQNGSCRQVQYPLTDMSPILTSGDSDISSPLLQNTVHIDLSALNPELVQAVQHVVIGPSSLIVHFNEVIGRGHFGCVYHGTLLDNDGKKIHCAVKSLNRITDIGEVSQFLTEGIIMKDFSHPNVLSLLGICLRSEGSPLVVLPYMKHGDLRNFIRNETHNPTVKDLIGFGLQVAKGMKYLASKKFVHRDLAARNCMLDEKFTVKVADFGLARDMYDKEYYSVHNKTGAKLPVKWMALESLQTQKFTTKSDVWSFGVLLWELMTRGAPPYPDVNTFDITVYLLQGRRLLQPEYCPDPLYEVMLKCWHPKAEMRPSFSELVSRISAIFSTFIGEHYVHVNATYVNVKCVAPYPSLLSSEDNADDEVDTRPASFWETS
# Procedure, shortened: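 IC50 derived by 4-parameter logistic regression of phospho-Met (panTyr) sandwich ELISA signal, scaled between HGF-stimulated DMSO and reference-inhibitor lysates. PC-3 cells, serum-starved 3 h, received an 8-point compound series (0.3% DMSO) for 1 h before 10 min stimulation with 100 ng/mL human HGF.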
# AXL = molecular target: T1, AXL (Homo sapiens, UniProt P30530); assay: AXL autophosphorylation ELISA in A-172 cells; format: cell-based; conditions: Table 3 Cellular Activities, Gas6-stimulated, phospho-AXL ELISA
# T1 construct: endogenous in cells; host or cells: A-172 glioblastoma cells (ATCC #CRL-1620)
# T1 sequence (P30530 26-894): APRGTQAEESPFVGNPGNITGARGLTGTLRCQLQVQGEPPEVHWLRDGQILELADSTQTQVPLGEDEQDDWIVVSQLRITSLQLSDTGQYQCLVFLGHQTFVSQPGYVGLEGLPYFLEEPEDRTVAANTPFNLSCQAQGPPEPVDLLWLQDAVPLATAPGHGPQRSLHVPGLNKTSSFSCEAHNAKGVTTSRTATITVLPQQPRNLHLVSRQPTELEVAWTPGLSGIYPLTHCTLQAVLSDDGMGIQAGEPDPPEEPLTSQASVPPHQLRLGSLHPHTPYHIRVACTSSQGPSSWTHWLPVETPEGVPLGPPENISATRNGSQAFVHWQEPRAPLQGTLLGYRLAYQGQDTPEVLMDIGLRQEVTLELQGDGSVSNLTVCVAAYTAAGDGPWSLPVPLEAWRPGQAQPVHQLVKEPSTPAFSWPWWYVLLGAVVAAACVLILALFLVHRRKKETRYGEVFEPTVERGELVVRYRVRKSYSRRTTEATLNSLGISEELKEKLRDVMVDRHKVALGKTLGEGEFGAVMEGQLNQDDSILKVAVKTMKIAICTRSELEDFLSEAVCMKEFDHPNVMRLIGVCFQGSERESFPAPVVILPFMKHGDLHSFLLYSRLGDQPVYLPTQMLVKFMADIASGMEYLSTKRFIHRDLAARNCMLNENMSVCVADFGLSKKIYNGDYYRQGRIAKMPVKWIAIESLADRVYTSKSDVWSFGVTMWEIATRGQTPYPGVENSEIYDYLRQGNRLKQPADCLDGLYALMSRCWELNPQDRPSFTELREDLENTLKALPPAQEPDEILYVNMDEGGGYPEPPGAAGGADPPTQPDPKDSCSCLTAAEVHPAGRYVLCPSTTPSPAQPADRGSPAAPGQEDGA
# Description: A-172 glioblastoma cells (ATCC #CRL-1620) were seeded at 2.5×10^5 cells/well onto 24-well plates (Greiner #662165), in DMEM (Thermo Fisher #11995-040) containing 10% FBS (Thermo Fisher #26140-079), 1% MEM NEAA (Thermo Fisher #11140-050), 1% GlutaMax (Thermo Fisher #35050-061), and 1% Penicillin Streptomycin (Thermo Fisher #15140-122). A-172 cells were incubated at 37° C., 5% CO2 for 24 h and then starved for 24 h in serum-free medium. Test compounds were serially diluted to produce an 8-point dose curve in fresh serum-free medium to a final concentration of 0.3% DMSO (vehicle) and added to the cells and incubated for 1 h. Cells were then stimulated with 1 μg/mL recombinant human Gas6 (R&D Systems #885-GSB-500) for 15 min, washed with cold PBS, and immediately lysed with 150 μL of cold 1× lysis buffer [20 mM Tris, 137 mM sodium chloride, 2 mM EDTA, 10% glycerol, 1% NP-40 alternative, 1 mM activated sodium orthovanadate, 1 mM PefaBloc SC (Sigma-Aldrich #11429868001), protease/phosphatase inhibitor tablet (Thermo Fisher #A32959)]. Lysates were collected and 100 μL/well added into the human phospho-AXL DuoSet IC ELISA (R&D Systems #DYC2228-2). Assay was performed according to manufacturer's instructions and sample phospho-AXL concentrations were extrapolated using human phospho-AXL control (R&D Systems #841645) as a standard. Positive control wells (100% activity) contained Gas6-stimulated, DMSO-treated cell lysates. Negative control wells (0% activity) contained Gas6-stimulated, reference inhibitor-treated cell lysates. IC50 values were calculated by nonlinear regression analysis using a 4-parameter logistic curve fit in ActivityBase XE (IDBS).
Structure (SMILES),pIC50 (Met),pIC50 (AXL)
"COc1cc2nccc(Oc3ccc(NC(=O)c4cnc(C)c(-c5ccco5)c4O)cc3)c2cc1OC [Compound 258, N-[4-(6,7-Dimethoxyquinolin-4-yl)oxyphenyl]-5-(furan-2-yl)-4-hydroxy-6-methylpyridine-3-carboxamide]",≥ 7.00,≥ 7.00
"COc1cc2nccc(Oc3ccc(NC(=O)c4ccc(C)n(-c5ccnc(F)c5)c4=O)cc3F)c2nc1OC [Compound 233, N-[4-[(6,7-Dimethoxy-1,5-naphthyridin-4-yl)oxy]-3-fluorophenyl]-1-(2-fluoropyridin-4-yl)-6-methyl-2-oxopyridine-3-carboxamide]",≥ 7.00,≥ 7.00
"COc1cc2nccc(Oc3ccc(NC(=O)c4nnc(C)c(-c5ccc(F)cn5)c4OC)cc3F)c2nc1OC [Compound 215, N-[4-[(6,7-Dimethoxy-1,5-naphthyridin-4-yl)oxy]-3-fluorophenyl]-5-(5-fluoropyridin-2-yl)-4-methoxy-6-methylpyridazine-3-carboxamide]",≥ 7.00,≥ 7.00
"COc1ccc2nccc(Oc3ccc(NC(=O)c4ccc(C)n(-c5ccc(F)cn5)c4=O)cc3F)c2c1 [Compound 49, N-[3-Fluoro-4-(6-methoxyquinolin-4-yl)oxyphenyl]-1-(5-fluoropyridin-2-yl)-6-methyl-2-oxopyridine-3-carboxamide]",≥ 7.00,≥ 7.00
"COc1cc2nccc(Oc3ccc(NC(=O)c4cc(C(C)=O)c(C)n(-c5ccoc5)c4=O)cc3F)c2nc1OC [Compound 235, 5-Acetyl-N-[4-[(6,7-dimethoxy-1,5-naphthyridin-4-yl)oxy]-3-fluorophenyl]-1-(furan-3-yl)-6-methyl-2-oxopyridine-3-carboxamide]",≥ 7.00,≥ 7.00
"COc1cc2nccc(Oc3ccc(NC(=O)c4c(C)ncc(-c5cccnc5)c4O)cc3F)c2nc1OC [Compound 228, N-[4-[(6,7-Dimethoxy-1,5-naphthyridin-4-yl)oxy]-3-fluorophenyl]-4-hydroxy-2-methyl-5-pyridin-3-ylpyridine-3-carboxamide]",≥ 7.00,≥ 7.00
"COc1cc2nccc(Oc3ccc(NC(=O)c4ccc(C)n(-c5cccnn5)c4=O)cc3F)c2nc1OC [Compound 234, N-[4-[(6,7-Dimethoxy-1,5-naphthyridin-4-yl)oxy]-3-fluorophenyl]-6-methyl-2-oxo-1-pyridazin-3-ylpyridine-3-carboxamide]",≥ 7.00,≥ 7.00
"COc1cc2nccc(Oc3ccc(NC(=O)c4c(C)cc(C)n(-c5ccc(F)cn5)c4=O)cc3)c2nc1OC [Compound 245, N-[4-[(6,7-Dimethoxy-1,5-naphthyridin-4-yl)oxy]phenyl]-1-(5-fluoropyridin-2-yl)-4,6-dimethyl-2-oxopyridine-3-carboxamide]",≥ 7.00,≥ 7.00
"COc1cc2nccc(Oc3ccc(NC(=O)c4c5n(cc(-c6ccc(C)s6)c4=O)CCOC5)cc3F)c2nc1OC [Compound 304, N-[4-[(6,7-Dimethoxy-1,5-naphthyridin-4-yl)oxy]-3-fluorophenyl]-7-(5-methylthiophen-2-yl)-8-oxo-3,4-dihydro-1H-pyrido[2,1-c][1,4]oxazine-9-carboxamide]",≥ 7.00,≥ 7.00
"COc1cc2nccc(Oc3ccc(NC(=O)c4c5n(cc(-c6ccoc6)c4=O)CCOC5)cc3)c2nc1OC [Compound 310, N-[4-[(6,7-Dimethoxy-1,5-naphthyridin-4-yl)oxy]phenyl]-7-(furan-3-yl)-8-oxo-3,4-dihydro-1H-pyrido[2,1-c][1,4]oxazine-9-carboxamide]",6.00 to 6.52,≥ 7.00
"COc1cc2nccc(Oc3ccc(NC(=O)c4c(C)n(C)cc(-c5ccc(F)cn5)c4=O)cc3F)c2nc1OC [Compound 71, N-[4-[(6,7-Dimethoxy-1,5-naphthyridin-4-yl)oxy]-3-fluorophenyl]-5-(5-fluoropyridin-2-yl)-1,2-dimethyl-4-oxopyridine-3-carboxamide]",≥ 7.00,≥ 7.00
"COc1cc2nccc(Oc3ccc(NC(=O)c4cccn(-c5cc[n+]([O-])cc5)c4=O)cc3F)c2nc1OC [Compound 247, N-[4-[(6,7-Dimethoxy-1,5-naphthyridin-4-yl)oxy]-3-fluorophenyl]-1-(1-oxidopyridin-1-ium-4-yl)-2-oxopyridine-3-carboxamide hydrochloride]",≥ 7.00,6.00 to 6.52
"CCOc1ccn(-c2ccc(F)cn2)c(=O)c1C(=O)Nc1ccc(Oc2ccnc3cc(OC)c(OC)nc23)c(F)c1 [Compound 243, N-[4-[(6,7-dimethoxy-1,5-naphthyridin-4-yl)oxy]-3-fluorophenyl]-4-ethoxy-1-(5-fluoropyridin-2-yl)-2-oxopyridine-3-carboxamide]",≥ 7.00,≥ 7.00
"COc1cc2nccc(Oc3ccc(NC(=O)c4c5n(cc(-c6cc(C)cs6)c4=O)CCOC5)cc3)c2nc1OC [Compound 303, N-[4-[(6,7-Dimethoxy-1,5-naphthyridin-4-yl)oxy]phenyl]-7-(4-methylthiophen-2-yl)-8-oxo-3,4-dihydro-1H-pyrido[2,1-c][1,4]oxazine-9-carboxamide]",6.52 to 7.00,≥ 7.00
"COc1cc2nccc(Oc3ccc(NC(=O)c4ccc(C)n(-c5cc[n+]([O-])cc5)c4=O)cc3F)c2nc1OC [Compound 231, N-[4-[(6,7-Dimethoxy-1,5-naphthyridin-4-yl)oxy]-3-fluorophenyl]-6-methyl-1-(1-oxidopyridin-1-ium-4-yl)-2-oxopyridine-3-carboxamide]",≥ 7.00,≥ 7.00
"COCCOc1cc2nccc(Oc3ccc(NC(=O)c4c(C)n(C)c(C)c(-c5coc6ccccc56)c4=O)cc3F)c2nc1OC [Compound 264, 5-(1-Benzofuran-3-yl)-N-[3-fluoro-4-[[6-methoxy-7-(2-methoxyethoxy)-1,5-naphthyridin-4-yl]oxy]phenyl]-1,2,6-trimethyl-4-oxopyridine-3-carboxamide]",≥ 7.00,≥ 7.00
"COc1cc(-n2c(C)ccc(C(=O)Nc3ccc(Oc4ccnc5cc(OC)c(OC)nc45)c(F)c3)c2=O)ccn1 [Compound 226, N-[4-[(6,7-Dimethoxy-1,5-naphthyridin-4-yl)oxy]-3-fluorophenyl]-1-(2-methoxypyridin-4-yl)-6-methyl-2-oxopyridine-3-carboxamide]",≥ 7.00,≥ 7.00
"COc1cc2nccc(Oc3ccc(NC(=O)c4c5n(cc(-c6ccco6)c4=O)CCOC5)cc3)c2nc1OC [Compound 298, N-[4-[(6,7-Dimethoxy-1,5-naphthyridin-4-yl)oxy]phenyl]-7-(furan-2-yl)-8-oxo-3,4-dihydro-1H-pyrido[2,1-c][1,4]oxazine-9-carboxamide]",6.00 to 6.52,≥ 7.00
"COc1cc2nccc(Oc3ccc(NC(=O)c4c(C)ncc(-c5ccc(F)cn5)c4O)cc3F)c2nc1OC [Compound 68, N-[4-[(6,7-Dimethoxy-1,5-naphthyridin-4-yl)oxy]-3-fluorophenyl]-5-(5-fluoropyridin-2-yl)-4-hydroxy-2-methylpyridine-3-carboxamide]",≥ 7.00,≥ 7.00
